The values below come from patent EP0153171A2, “New 2-hydroxyethyl-trimethylammonium salt of 1-ethyl-3-carboxy-4-oxo-6,7-methylenedioxy-1,4-dihydroquinoline, process for the preparation thereof and pharmaceutical composition containing it” (CHINOIN Gyogyszer és Vegyészeti Termékek Gyára RT., priority 1984, dated 1985).

Data set [1] is described as follows: in vivo resorption examination in mice: serum concentration determined microbiologically from inhibition zones. The arrangement: species or system Male CFLP mice. To be noted: for resorption: in vivo, comparison in words; for concentration at 0.5 h: 0.5 hour after treatment, as oxolinic acid; for concentration at 0.5 h / concentration at 1 h / concentration at 2 h / concentration at 3 h / concentration at 4 h: read-out: Plasma concentrations from the calibration curve; for concentration at 1 h: 1 hour after treatment; for concentration at 2 h: 2 hours after treatment; for concentration at 3 h: 3 hours after treatment; for concentration at 4 h: 4 hours after treatment; for Diameters of the inhibition zones: parallels a, b, c. As for the experimental part: Male CFLP mice with 25 g of an average body weight were used for these experiments. After starving for 12 hours, the animals were given oxolinic acid or choline oxolinate, respectively in a volume of 2 ml/100 g of body weight as an aqueous suspension containing 1 % of methylcellulose. The doses administered were 50 mg/kg of body weight of oxolinic acid or 70 mg/kg of body weight of choline oxolinate, respectively. )These doses are equimolar as calculated for oxolinic acid.) At 0.5, 1, 2, 3 or 4 hours, respectively after treatment the animals were killed, their blood were centrifuged and the serum were used for the microbiological determination of the concentration.
The examinations were carried out in three parallels. 50/ul of the serum were applied to an agar gel plate containing Proteus Mirabilis in a concentration of 10^7 germs/ml. Simultaneously, a calibration curve was taken up with 50 ul each of suspensions containing oxolinic acid in a concentration of 1, 2, 4, 5, 10, 50 and 100 ug/ml, respectively. The serum concentrations were calculated from the average of diameters of the inhibition zones by using the calibration curve.
(§1) The calibration values are shown in Table I and in Figue 3, respectively. The results of determinations are summarized in Tables II and III and in Figure 4, respectively.

Data set [2] is described as follows: solubility of the substance in water and solvents.
For the next data set, the system named is Proteus Mirabilis. Kind of data set: calibrating series on agar gel plate: inhibition zone against concentration. To be noted: 50 ul applied, 2 parallels. The format is cell-based. The protocol: […] 50/ul of the serum were applied to an agar gel plate containing Proteus Mirabilis in a concentration of 10^7 germs/ml. Simultaneously, a calibration curve was taken up with 50 ul each of suspensions containing oxolinic acid in a concentration of 1, 2, 4, 5, 10, 50 and 100 ug/ml, respectively. The serum concentrations were calculated from the average of diameters of the inhibition zones by using the calibration curve.
as §1

Setting [3] is: mouse, serum, 50 mg/kg oxolinic acid or 70 mg/kg choline oxolinate.
Where [4] appears, read: serum sampled at 1.0 hour, 50 mg/kg oxolinic acid or 70 mg/kg choline oxolinate.
Where [5] appears, read: serum sampled at 2.0 hour, 50 mg/kg oxolinic acid or 70 mg/kg choline oxolinate.
[6] abbreviates: serum sampled at 3.0 hour, 50 mg/kg oxolinic acid or 70 mg/kg choline oxolinate.
Setting [7] is: serum sampled at 4.0 hour, 50 mg/kg oxolinic acid or 70 mg/kg choline oxolinate.

Molecules are shown by their SMILES. Values joined by “and” are separate entries in the source; they are usually repeats but may differ in a detail not shown here. Identical values can stand only once. Counter-ions that a name gives are not always drawn.

On to `CCn1cc(C(=O)[O-])c(=O)c2cc3c(cc21)OCO3.[Na+]` [sodium oxolinate], for which, in data set [1], the resorption result is “weaker than that of choline oxolinate”.
What is called zone of inhibition is the extent of the growth-free halo in a diffusion test. On to `CCn1cc(C(=O)O)c(=O)c2cc3c(cc21)OCO3` [oxolinic acid, 1-ethyl--3-carboxy-4-oxo-6,7-methylenedioxy-1,4-dihydroquinoline], for which, in data set [2] (water), the solubility in water is reported as 6,5 /ug/ml. For the same compound, the concentration at 0.5 h in data set [1] (setting [3]) is 15000 ng/mL. Also, in data set [1] (setting [3]), the concentration at 1 h is 14500 ng/mL. In data set [1] (setting [3]), the concentration at 2 h turned out to be 4600 ng/mL. Also, in data set [1] (setting [3]), the concentration at 3 h was 4200 ng/mL. Also, in data set [1] (setting [3]), the concentration at 4 h was 4800 ng/mL. Moreover, the “Diameters of the inhibition zones” value in data set [1] (setting [4]) is 17.7 mm and 18.2 mm and 17.5 mm; in data set [1] (setting [5]), 15.3 mm and 17.4 mm and 8.8 mm; in data set [1] (setting [6]), 14.0 mm and 16.0 mm and 14.3 mm; in data set [1] (setting [7]), 16.8 mm and 14.7 mm and 14.1 mm. The zone of inhibition at 1 µg/mL with Proteus Mirabilis (Proteus mirabilis, concentration 1 /ug/ml, read-out: Diameter of the inhibition zone) is 8.6 mm. In addition, in the data set on Proteus Mirabilis (Proteus mirabilis, concentration 2 /ug/ml, read-out: Diameter of the inhibition zone), the zone of inhibition at 2 µg/mL stood at 11.6 mm. In the data set with Proteus Mirabilis (Proteus mirabilis, concentration 4 /ug/ml, read-out: Diameter of the inhibition zone), the zone of inhibition at 4 µg/mL was determined as 14.4 mm. Further, the zone of inhibition at 5 µg/mL in the data set on Proteus Mirabilis (Proteus mirabilis, concentration 5 /ug/ml, read-out: Diameter of the inhibition zone) stood at 15 mm. Besides, the zone of inhibition at 10 µg/mL with Proteus Mirabilis (Proteus mirabilis, concentration 10 /ug/ml, read-out: Diameter of the inhibition zone) turned out to be 17.9 mm. In addition, in the data set on Proteus Mirabilis (Proteus mirabilis, concentration 50 /ug/ml, read-out: Diameter of the inhibition zone), the zone of inhibition at 50 µg/mL was determined as 20.7 mm. For the same compound, the zone of inhibition at 100 µg/mL in the data set on Proteus Mirabilis (Proteus mirabilis, concentration 100 /ug/ml, read-out: Diameter of the inhibition zone) was 26.5 mm. The “Diameter of the inhibition zone” value in the data set on Proteus Mirabilis (concentration 1 /ug/ml) stood at 8.5 mm; in the data set with Proteus Mirabilis (concentration 2 /ug/ml) it was 11.9 mm; in the data set with Proteus Mirabilis (concentration 4 /ug/ml), 14.1 mm; in the data set on Proteus Mirabilis (concentration 5 /ug/ml), 14.7 mm; in the data set with Proteus Mirabilis (concentration 10 /ug/ml), 17.2 mm; with Proteus Mirabilis (concentration 50 /ug/ml), 19.4 mm. Also, in the data set on Proteus Mirabilis (concentration 100 /ug/ml), the “Diameter of the inhibition zone” value is on record as 24.7 mm.
Take `CCn1cc(C(=O)O)c(=O)c2cc3c(cc21)OCO3` [choline oxolinate, 2-hydroxyethyl-trimethylammonium salt of 1-ethyl-3-carboxy-4-oxo-6,7-methylenedioxy-1,4-dihydroquinoline]: the “solubility (in words)” value was “insoluble” in data set [2] (acetone); “dissolves well” in data set [2] (chloroform); “dissolves well” in data set [2] (ethanol); “insoluble” in data set [2] (ether); “dissolves well” in data set [2] (water). Moreover, in data set [2] (water), the solubility in water entry is “higher than 1 g/ml”. Moreover, the resorption result in data set [1] is “substantially better resorbed”. In addition, the bioavailability entry in data set [1] (mice, compared with administration of oxolinic acid) is “sigrificantly higher”. For the same compound, the concentration at 0.5 h in data set [1] (setting [3]) is 56000 ng/mL. Further, in data set [1] (setting [3]), the concentration at 1 h is 26000 ng/mL. The concentration at 2 h in data set [1] (setting [3]) worked out at 15000 ng/mL. Besides, in data set [1] (setting [3]), the concentration at 3 h stood at 6600 ng/mL. Besides, in data set [1] (setting [3]), the concentration at 4 h was found to be 3100 ng/mL. For the same compound, the Tmax in data set [1] (mouse, serum, mice, 70 mg/kg choline oxolinate, first sampling, read-out: time at which a high level of serum concentration was reached) was at most 30 min. In addition, the “Diameters of the inhibition zones” value in data set [1] (serum sampled at 0.5 hour, equimolar doses: 50 mg/kg oxolinic acid or 70 mg/kg choline oxolinate, 50 ul serum on Proteus Mirabilis plate) is 22.6 mm and 21.9 mm; in data set [1] (setting [4]) it was 19.3 mm and 19.1 mm and 20.9 mm; in data set [1] (setting [5]), 18.2 mm and 17.8 mm; in data set [1] (setting [6]), 13.9 mm and 15.3 mm and 11.4 mm; in data set [1] (setting [7]) it was 11.7 mm and 14.3 mm.
